Source: US20140205537A1, “LRRK2 INHIBITORS” (ZENOBIA THERAPEUTICS, INC., priority 2011, published 2014)
pKd: −log10 of the molar value.

Experiments:
RET = RET (Homo sapiens, UniProt P07949); test: Kinase selectivity panel: RET; format: biochemical
ROCK1 = ROCK1 (Homo sapiens, UniProt Q13464); test: Kinase selectivity panel: ROCK1; format: biochemical
RSK2 = RSK2 (Homo sapiens, UniProt P51812); test: Kinase selectivity panel: RSK2; format: biochemical
CK2 alpha 1 = CK2 alpha 1 (Homo sapiens, UniProt P68400); test: Kinase selectivity panel: CK2 alpha 1; format: biochemical
EPHA2 = EPHA2 (Homo sapiens, UniProt P29317); test: Kinase selectivity panel: EPHA2; format: biochemical
AKT1 = AKT1 (Homo sapiens, UniProt P31749); test: Kinase selectivity panel: AKT1; format: biochemical
MEK1 = MEK1 (Homo sapiens, UniProt Q02750); test: Kinase selectivity panel: MEK1; format: biochemical
PIM1 = PIM1 (Homo sapiens, UniProt P11309); test: Kinase selectivity panel: PIM1; format: biochemical
KIT = KIT (Homo sapiens, UniProt P10721); test: Kinase selectivity panel: KIT; format: biochemical
G2019S LRRK2 = G2019S LRRK2 (Homo sapiens, UniProt Q5S007, G2019S); test: DiscoveRx KINOMEscan binding constant (Kd); parameters: purchased DiscoveRx (KINOMEscan service); host or cells: E. coli BL21-derived host (T7 phage) or HEK-293; conditions: numeric value
Description: Compounds of formulas (II), (I), (I-A), (I-B), (I-C), (I-D), (I-D-1), (I-D-2), (I-E), (I-F), (I-G), (I-H), (I-I), (I-I-1), (I-I-2), (I-J), (I-K), (I-L), (I-M), (I-N), (I-Z-1), (I-Z-2), (I-Z-2-a), (I-Z-2-b), (I-Z-2-c), (I-Z-2-d), (I-Z-3-a), (I-Z-3-b), (I-Z-3-c), or (I-Z-3-d) were tested using DiscoveRx's KINOMEscan™ technology to measure a binding constant (Kd) to wild type and G2019S LRRK2. Kinase-tagged T7 phage strains were prepared in an E. coli host derived from the BL21 strain. E. coli were grown to log-phase and infected with T7 phage and incubated with shaking at 32° C. until lysis. The lysates were centrifuged and filtered to remove cell debris. The remaining kinases were produced in HEK-293 cells and subsequently tagged with DNA for qPCR detection. Streptavidin-coated magnetic beads were treated with biotinylated small molecule ligands for 30 minutes at room temperature to generate affinity resins for kinase assays. The liganded beads were blocked with excess biotin and washed with blocking buffer (SeaBlock (Pierce), 1% BSA, 0.05% Tween 20, 1 mM DTT) to remove unbound ligand and to reduce non-specific binding. Binding reactions were assembled by combining kinases, liganded affinity beads, and test compounds in 1× binding buffer (20% SeaBlock, 0.17×PBS, 0.05% Tween 20, 6 mM DTT). All reactions were performed in polystyrene 96-well plates in a final volume of 0.135 ml. The assay plates were incubated at room temperature with shaking for 1 hour and the affinity beads were washed with wash buffer (lx PBS, 0.05% Tween 20). The beads were then re-suspended in elution buffer (lx PBS, 0.05% Tween 20, 0.5 μM non-biotinylated affinity ligand) and incubated at room temperature with shaking for 30 minutes. The kinase concentration in the eluates was measured by qPCR. An 11-point 3-fold serial dilution of each test compound was prepared in 100% DMSO at 100× final test concentration and subsequently diluted to 1× in the assay (final DMSO concentration=[…]). Most Kds were determined using a compound top concentration=30,000 nM.

FLT3 = FLT3 (Homo sapiens, UniProt P36888); test: Kinase selectivity panel: FLT3; format: biochemical
KDR = KDR (Homo sapiens, UniProt P35968); test: Kinase selectivity panel: KDR; format: biochemical
CDK1/cyclinB = CDK1/cyclinB (Homo sapiens, UniProt P06493); test: Kinase selectivity panel: CDK1/cyclinB; format: biochemical
PLK1 = PLK1 (Homo sapiens, UniProt P53350); test: Kinase selectivity panel: PLK1; format: biochemical
BTK = BTK (Homo sapiens, UniProt Q06187); test: Kinase selectivity panel: BTK; format: biochemical
Chain of BTK (Q06187 whole entry, species assumed): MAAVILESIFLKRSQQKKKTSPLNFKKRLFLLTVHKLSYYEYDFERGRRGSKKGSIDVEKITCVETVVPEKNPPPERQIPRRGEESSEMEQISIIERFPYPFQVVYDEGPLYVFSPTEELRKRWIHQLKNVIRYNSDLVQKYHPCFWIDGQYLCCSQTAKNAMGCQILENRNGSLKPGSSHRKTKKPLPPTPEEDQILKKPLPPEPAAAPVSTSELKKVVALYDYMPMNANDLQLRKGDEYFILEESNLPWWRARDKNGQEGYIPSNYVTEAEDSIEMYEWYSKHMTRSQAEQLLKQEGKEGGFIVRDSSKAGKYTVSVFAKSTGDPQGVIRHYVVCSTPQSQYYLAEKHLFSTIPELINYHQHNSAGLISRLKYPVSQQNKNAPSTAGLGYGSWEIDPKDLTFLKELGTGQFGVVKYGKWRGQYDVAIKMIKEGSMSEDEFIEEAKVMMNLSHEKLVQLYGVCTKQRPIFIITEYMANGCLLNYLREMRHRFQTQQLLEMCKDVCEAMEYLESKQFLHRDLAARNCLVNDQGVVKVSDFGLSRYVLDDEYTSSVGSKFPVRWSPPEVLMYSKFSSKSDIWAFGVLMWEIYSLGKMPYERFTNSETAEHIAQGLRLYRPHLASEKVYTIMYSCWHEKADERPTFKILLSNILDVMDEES

Chain of AKT1 (P31749 whole entry, species assumed): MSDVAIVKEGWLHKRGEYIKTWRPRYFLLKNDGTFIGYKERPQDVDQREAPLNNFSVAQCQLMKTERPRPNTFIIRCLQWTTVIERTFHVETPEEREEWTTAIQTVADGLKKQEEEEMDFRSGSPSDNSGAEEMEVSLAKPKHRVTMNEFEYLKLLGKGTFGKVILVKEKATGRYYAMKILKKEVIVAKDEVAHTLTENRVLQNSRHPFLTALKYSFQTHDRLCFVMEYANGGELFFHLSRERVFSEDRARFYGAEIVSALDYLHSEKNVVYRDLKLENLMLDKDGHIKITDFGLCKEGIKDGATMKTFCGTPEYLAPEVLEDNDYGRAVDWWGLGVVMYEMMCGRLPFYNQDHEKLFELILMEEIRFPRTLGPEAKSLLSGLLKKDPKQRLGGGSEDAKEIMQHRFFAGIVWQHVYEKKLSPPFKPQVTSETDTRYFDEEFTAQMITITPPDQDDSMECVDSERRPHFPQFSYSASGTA
Chain of CK2 alpha 1 (P68400 whole entry): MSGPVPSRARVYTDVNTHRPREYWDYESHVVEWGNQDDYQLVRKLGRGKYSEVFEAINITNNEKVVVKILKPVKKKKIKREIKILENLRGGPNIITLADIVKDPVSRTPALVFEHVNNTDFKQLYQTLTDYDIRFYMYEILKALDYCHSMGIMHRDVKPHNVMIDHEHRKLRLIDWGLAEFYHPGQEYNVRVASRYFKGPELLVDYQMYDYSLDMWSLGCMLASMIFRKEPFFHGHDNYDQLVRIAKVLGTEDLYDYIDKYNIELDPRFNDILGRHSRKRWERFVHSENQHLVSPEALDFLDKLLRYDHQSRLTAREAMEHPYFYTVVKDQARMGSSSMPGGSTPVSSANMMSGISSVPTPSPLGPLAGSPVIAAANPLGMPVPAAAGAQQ
Chain of PIM1 (P11309 whole entry, species assumed): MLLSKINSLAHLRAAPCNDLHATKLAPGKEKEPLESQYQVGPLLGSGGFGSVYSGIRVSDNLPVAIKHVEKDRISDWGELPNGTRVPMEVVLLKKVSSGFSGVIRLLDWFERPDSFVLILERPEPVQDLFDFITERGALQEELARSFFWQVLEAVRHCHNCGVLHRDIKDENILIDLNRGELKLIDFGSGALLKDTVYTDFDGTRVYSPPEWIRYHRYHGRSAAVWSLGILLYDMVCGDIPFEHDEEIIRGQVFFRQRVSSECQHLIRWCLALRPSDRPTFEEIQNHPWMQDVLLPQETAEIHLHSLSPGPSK
Chain of FLT3 (P36888 27-993, species assumed): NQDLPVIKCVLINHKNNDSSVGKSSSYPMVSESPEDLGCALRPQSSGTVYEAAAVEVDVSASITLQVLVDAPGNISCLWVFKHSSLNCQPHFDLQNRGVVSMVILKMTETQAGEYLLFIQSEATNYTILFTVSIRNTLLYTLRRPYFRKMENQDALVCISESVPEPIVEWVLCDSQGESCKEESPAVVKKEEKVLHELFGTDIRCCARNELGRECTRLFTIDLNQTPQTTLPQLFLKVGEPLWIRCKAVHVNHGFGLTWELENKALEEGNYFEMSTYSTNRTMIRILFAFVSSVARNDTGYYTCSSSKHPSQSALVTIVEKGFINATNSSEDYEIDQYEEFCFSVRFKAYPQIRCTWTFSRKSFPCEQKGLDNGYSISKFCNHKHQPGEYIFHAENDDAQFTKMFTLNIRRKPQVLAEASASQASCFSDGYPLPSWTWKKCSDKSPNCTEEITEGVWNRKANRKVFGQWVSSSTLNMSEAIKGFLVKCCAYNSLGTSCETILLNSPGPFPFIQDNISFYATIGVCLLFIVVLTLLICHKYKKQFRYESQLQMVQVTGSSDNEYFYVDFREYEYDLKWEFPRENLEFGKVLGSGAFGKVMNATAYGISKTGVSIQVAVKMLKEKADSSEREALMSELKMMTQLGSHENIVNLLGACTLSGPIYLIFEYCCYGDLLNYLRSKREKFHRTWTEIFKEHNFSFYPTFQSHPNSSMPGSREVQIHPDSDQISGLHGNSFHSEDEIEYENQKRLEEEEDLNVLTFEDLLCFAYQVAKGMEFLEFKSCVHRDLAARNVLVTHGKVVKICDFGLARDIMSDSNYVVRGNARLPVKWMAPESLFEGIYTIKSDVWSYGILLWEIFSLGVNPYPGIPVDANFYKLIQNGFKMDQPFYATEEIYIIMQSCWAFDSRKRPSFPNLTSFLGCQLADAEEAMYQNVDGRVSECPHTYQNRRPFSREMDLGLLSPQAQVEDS
Chain of RSK2 (P51812 whole entry, species assumed): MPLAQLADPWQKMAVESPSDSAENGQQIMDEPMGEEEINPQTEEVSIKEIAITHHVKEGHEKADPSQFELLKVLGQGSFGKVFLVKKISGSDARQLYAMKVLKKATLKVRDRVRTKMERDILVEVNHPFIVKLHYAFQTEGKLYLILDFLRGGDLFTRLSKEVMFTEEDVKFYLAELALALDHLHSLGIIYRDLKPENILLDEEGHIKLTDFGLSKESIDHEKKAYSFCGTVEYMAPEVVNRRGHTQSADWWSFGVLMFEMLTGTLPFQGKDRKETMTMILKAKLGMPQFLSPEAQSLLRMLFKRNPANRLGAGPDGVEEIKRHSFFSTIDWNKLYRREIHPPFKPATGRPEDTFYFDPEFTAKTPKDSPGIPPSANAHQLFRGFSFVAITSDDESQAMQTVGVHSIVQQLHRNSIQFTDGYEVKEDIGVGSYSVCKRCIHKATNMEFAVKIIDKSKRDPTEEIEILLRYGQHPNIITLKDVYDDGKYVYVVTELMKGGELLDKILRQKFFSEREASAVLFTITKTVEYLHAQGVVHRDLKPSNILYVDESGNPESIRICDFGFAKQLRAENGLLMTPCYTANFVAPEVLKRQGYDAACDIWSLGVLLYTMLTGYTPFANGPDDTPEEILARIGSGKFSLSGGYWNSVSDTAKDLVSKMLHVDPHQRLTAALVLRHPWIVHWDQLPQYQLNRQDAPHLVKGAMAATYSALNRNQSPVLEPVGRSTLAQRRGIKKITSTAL
Chain of MEK1 (Q02750 whole entry, species assumed): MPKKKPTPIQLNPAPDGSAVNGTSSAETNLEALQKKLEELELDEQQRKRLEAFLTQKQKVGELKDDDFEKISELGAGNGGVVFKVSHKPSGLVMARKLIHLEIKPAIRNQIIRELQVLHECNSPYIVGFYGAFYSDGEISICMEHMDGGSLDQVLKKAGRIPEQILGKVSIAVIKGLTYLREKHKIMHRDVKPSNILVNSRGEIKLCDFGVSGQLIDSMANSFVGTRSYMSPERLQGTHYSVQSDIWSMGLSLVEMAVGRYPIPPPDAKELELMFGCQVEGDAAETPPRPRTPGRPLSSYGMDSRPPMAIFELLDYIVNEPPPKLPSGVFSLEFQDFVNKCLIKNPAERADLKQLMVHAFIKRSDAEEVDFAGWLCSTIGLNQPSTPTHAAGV
Chain of KIT (P10721 26-976, species assumed): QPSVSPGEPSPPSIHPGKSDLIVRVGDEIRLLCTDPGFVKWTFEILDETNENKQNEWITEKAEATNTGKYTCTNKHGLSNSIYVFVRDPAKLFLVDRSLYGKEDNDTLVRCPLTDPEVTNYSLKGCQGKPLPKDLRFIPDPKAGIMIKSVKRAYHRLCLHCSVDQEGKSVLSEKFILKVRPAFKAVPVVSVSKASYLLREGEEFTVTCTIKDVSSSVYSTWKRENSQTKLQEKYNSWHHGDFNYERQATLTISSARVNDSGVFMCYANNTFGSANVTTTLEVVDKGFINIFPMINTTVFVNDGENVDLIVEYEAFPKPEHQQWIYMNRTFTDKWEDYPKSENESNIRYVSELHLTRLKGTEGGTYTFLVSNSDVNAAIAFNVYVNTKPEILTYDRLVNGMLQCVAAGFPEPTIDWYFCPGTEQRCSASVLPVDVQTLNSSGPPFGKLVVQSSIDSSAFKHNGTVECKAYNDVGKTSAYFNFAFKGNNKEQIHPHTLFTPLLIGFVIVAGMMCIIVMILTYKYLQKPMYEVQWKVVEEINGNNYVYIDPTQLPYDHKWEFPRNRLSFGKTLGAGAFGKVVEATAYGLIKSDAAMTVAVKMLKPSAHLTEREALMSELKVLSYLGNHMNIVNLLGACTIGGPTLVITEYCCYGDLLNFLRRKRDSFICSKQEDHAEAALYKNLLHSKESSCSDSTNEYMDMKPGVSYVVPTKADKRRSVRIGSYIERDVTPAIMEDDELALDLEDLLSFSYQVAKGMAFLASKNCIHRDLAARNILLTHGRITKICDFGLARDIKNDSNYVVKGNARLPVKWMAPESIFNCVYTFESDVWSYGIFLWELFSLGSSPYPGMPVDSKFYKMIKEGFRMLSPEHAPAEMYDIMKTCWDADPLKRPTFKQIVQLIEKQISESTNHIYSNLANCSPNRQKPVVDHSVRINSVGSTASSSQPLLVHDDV

Q: What does the source list for `COc1ccc2c(c1)/C(=C/c1cnc(C3CCOCC3)[nH]1)C(=O)N2` [Compound 18, (3Z)-5-methoxy-3-[(2-tetrahydropyran-4-yl-1H-imidazol-5-yl)methylene]indolin-2-one]?
A: inhibition at 0.1 µM (RET): 3%; inhibition at 0.1 µM (ROCK1): 1%; inhibition at 0.1 µM (RSK2): 3%; inhibition at 0.1 µM (CK2 alpha 1): 6%; inhibition at 0.1 µM (EPHA2): 2%; inhibition at 0.1 µM (AKT1): -2%; inhibition at 0.1 µM (MEK1): 16%; inhibition at 0.1 µM (PIM1): -2%; inhibition at 0.1 µM (KIT): 4%; pKd (G2019S LRRK2): 7.02; inhibition at 0.1 µM (FLT3): 8%; inhibition at 0.1 µM (KDR): 1%; inhibition at 0.1 µM (CDK1/cyclinB): 0%; inhibition at 0.1 µM (PLK1): 12%; inhibition at 0.1 µM (BTK): 4%
